From patent US20160136295A1, “BIOMARKERS FOR TREATMENT WITH ANTI-TUBULIN CHEMOTHERAPEUTIC COMPOUNDS” (GENENTECH, INC., priority 2012, published 2016)
Peptide text beside a SMILES is read from it. * marks the point of attachment. Cbz = O=C(OCc1ccccc1)*

Legend:
Mcl-1 = Mcl-1 protein level / degradation in mitotic arrest (western blot of synchronized cells); format: cell-based, human
Description: (§1) The viability of cancer cell lines, and MEFs in which genes encoding IAPs had been knocked out, was analysed by using the CellTiter-Glo Luminescent Cell Viability Assay® (Promega). Cells were treated in triplicate with anti-tubulin agents for the indicated times, using dimethylsulphoxide treatment as a control. The viability of BCL2-family-member-null MEFs was analysed by propidium iodide staining, as described previously (Chen, L. et al. (2005) Molecular cell 17:393-403), after treatment with anti-tubulin agents for 48 h. Cell synchronization was achieved by culture either in serum-free medium for 12-16 h or in medium containing 2 mM thymidine for 18-24 h, release from the thymidine block with three washes in PBS, followed by culture for 8-12 h in complete growth media (compositions are described in the Supplementary Information). Cells then underwent a second thymidine block for 16-20 h, three further washes in PBS and release into complete medium containing the indicated reagents. To block MCL1 degradation, […] MG132 was added as cells entered mitotic arrest, as assessed by visual inspection. See the Examples for full methods.
Western blotting was performed essentially as described (Wertz, I. E. et al. (2004) Science (New York, N.Y 303:1371-1374). In brief, cells were lysed in corrected FLAG elution buffer (CFEB) (19.17 mM Tris (pH 7.5), 916.7 μM MgCl2, 92.5 mM NaCl and 0.1% Triton X-100) with protease and phosphatase inhibitors; in some cases 6 M urea was added. Cleared lysates were quantitated and equal amounts of proteins were reduced, alkylated, separated by SDS-PAGE, and transferred onto PVDF membranes (Invitrogen) following standard procedures. Western blotting was performed as recommended by the respective antibody manufacturers. Patient tissue and xenograft samples were lysed in 5× volume of CFEB with protease inhibitors using Fast prep 24 (MP Biologicals). Tissue lysates were cleared and 40 μg total protein was prepared for western blotting analysis as described above. Immunoprecipitations were performed with the indicated antibodies as described (Willis, S. N. et al. (2007) Science (New York, N.Y 315:856-859; Wertz, I. E. et al. (2004) Science (New York, N.Y 303:1371-1374). PP2A activity was performed on PP2A or Mcl-1 immunoprecipitates as recommended by the manufacturer (Upstate)

[1] = system: murine embryonic fibroblasts (MEFs); assay: Viability of BCL2-family-member-null MEFs by propidium iodide staining after anti-tubulin agents; format: cell-based; details: treated 48 hours
Description: as §1

Mcl-1 S121 = assay: In vitro kinase reactions: percent phosphorylation of full-length recombinant Mcl-1 at S121; format: biochemical, human; details: for Percent phosphorylation S121, AVE: average of INJ1 and INJ2; for Percent phosphorylation S121, INJ1: sample injection 1; for Percent phosphorylation S121, INJ2: sample injection 2
Description: (§2) To determine the suitability of residues in Mcl-1 as kinase substrates, 10 μM of Mcl-1 was incubated with selected kinase at enzyme concentrations between 25 and 100 nM. For these reactions the Mcl-1 was dialyzed into 20 mM Phosphate, 50 mM Tris pH 7.5 150 mM NaCl, 5 mM DTT and 0.5% CHAPS. The protein solution was further supplemented with MgCl2 to 10 mM and ATP to 1 mM prior to addition of kinase. Purified recombinant kinases were purchased from Invitrogen Co. (Carlsbad, Calif.).
(§3) 10 μl of each of the Mcl-1 kinase reactions (100 pmol) were loaded onto a 4-12% Bis-Tris gel for separation by SDS-PAGE after reduction. Mcl-1 bands were excised from the gel, dehydrated (50% acetonitrile in 50 mM ammonium bicarbonate then 100% acetonitrile washes), and incubated with 0.2 μg trypsin overnight at 37° C.
(§4) Samples were injected in duplicate via autosampler onto a nanoAcquity® UPLC (Waters, Milford, Mass.) and analyzed on-line via nanospray ionization into an LTQ-Orbitrap® mass spectrometer at a concentration of 300 fmol synthetic peptide mix per injection. Areas were integrated for the isotopic and kinase phosphorylated peptides, and compared to their non-phosphorylated peptide counterparts to obtain percent phosphorylation values.

Mcl-1 T163 = assay: In vitro kinase reactions: percent phosphorylation of full-length recombinant Mcl-1 at T163; format: biochemical, human; details: single kinase reactions; for Percent phosphorylation T163, AVE: average of INJ1 and INJ2; for Percent phosphorylation T163, INJ1: sample injection 1; for Percent phosphorylation T163, INJ2: sample injection 2
Description: as §2, §3, §4

Mcl-1 S159 = assay: In vitro kinase reactions: percent phosphorylation of full-length recombinant Mcl-1 at S159 alone; format: biochemical, human; details: % phos on S159 alone; for Percent phosphorylation S159, AVE: average; for Percent phosphorylation S159, INJ1: sample injection 1; for Percent phosphorylation S159, INJ2: sample injection 2
Description: as §2, §3
as §4, with “values. For phosphorylation analysis of T92, no synthetic peptide was available so peak areas of the phosphorylated peptide covering residues 76-95 was divided by the total occurrence of peptide 76-95 in both phosphorylated and non-phosphorylated forms.” for “values.”

Mcl-1 T92 = assay: In vitro kinase reactions: percent phosphorylation of full-length recombinant Mcl-1 at T92; format: biochemical, human; details: single kinase reactions, peak areas of 0 and 1P, triple charged state; for Percent phosphorylation T92, AVE: average; for Percent phosphorylation T92, INJ1: sample injection 1; for Percent phosphorylation T92, INJ2: sample injection 2
Description: as §2, §3, §4

Mcl-1 S159/T163 = assay: In vitro kinase reactions: percent phosphorylation of full-length recombinant Mcl-1 at S159+T163; format: biochemical, human; details: for Percent phosphorylation S159/T163, AVE: average; for Percent phosphorylation S159/T163, INJ1: sample injection 1; for Percent phosphorylation S159/T163, INJ2: sample injection 2
Description: as §2, §3, §4

[2] = % phos on S159+T163, CDK1 + kinase panel reactions
[3] = % phos on S159+T163, single kinase reactions

Compound	Percent phosphorylation S121, AVE (Mcl-1 S121; CDK1 + kinase panel reactions) [%]	Percent phosphorylation S121, INJ1 (Mcl-1 S121; CDK1 + kinase panel reactions) [%]	Percent phosphorylation S121, INJ2 (Mcl-1 S121; CDK1 + kinase panel reactions) [%]	Percent phosphorylation S121, AVE (Mcl-1 S121; single kinase reactions) [%]	Percent phosphorylation S121, INJ1 (Mcl-1 S121; single kinase reactions) [%]	Percent phosphorylation S121, INJ2 (Mcl-1 S121; single kinase reactions) [%]	Percent phosphorylation T163, AVE (Mcl-1 T163) [%]	Percent phosphorylation T163, INJ1 (Mcl-1 T163) [%]	Percent phosphorylation T163, INJ2 (Mcl-1 T163) [%]	Percent phosphorylation T92, AVE (Mcl-1 T92) [%]	Percent phosphorylation T92, INJ1 (Mcl-1 T92) [%]	Percent phosphorylation T92, INJ2 (Mcl-1 T92) [%]	Percent phosphorylation S159/T163, AVE (Mcl-1 S159/T163; [2]) [%]	Percent phosphorylation S159/T163, INJ1 (Mcl-1 S159/T163; [2]) [%]	Percent phosphorylation S159/T163, INJ2 (Mcl-1 S159/T163; [2]) [%]	Percent phosphorylation S159/T163, AVE (Mcl-1 S159/T163; [3]) [%]	Percent phosphorylation S159/T163, INJ1 (Mcl-1 S159/T163; [3]) [%]	Percent phosphorylation S159/T163, INJ2 (Mcl-1 S159/T163; [3]) [%]	further results
Nc1[nH]nc2nnc(-c3c(-c4ccccc4)nn4ccccc34)cc12 [FR180204]																			Mcl-1 degradation in mitotic arrest (Mcl-1; HeLa released into paclitaxel, CGP74514A 2 μM, FR180204 2 μM, SP600125 25 μM, SB203580 2 μM added on entry into mitotic arrest): but not ERK, attenuate Mcl-1 degradation
CC(C)C[C@@H](C=O)NC(=O)[C@H](CC(C)C)NC(=O)[C@H](CC(C)C)NC(=O)OCc1ccccc1 [MG132] (Cbz-Leu-Leu-Leu-aldehyde)																			Mcl-1 degradation in mitotic arrest (Mcl-1; HeLa, HCT116 cells, MG132 added as cells entered mitotic arrest): blocked Mcl-1 degradation
COC(=O)Nc1nc2ccc(C(=O)c3cccs3)cc2[nH]1 [nocodazole]																			Mcl-1 protein level in mitotic arrest (Mcl-1; synchronized cells (HeLa) released into the agent): declined markedly; killing (cell viability) ([1]; BAX−/−/BAK−/− MEFs): resistant; killing (cell viability) ([1]; wild-type MEFs): significantly more sensitive
CSNK2: purified recombinant kinase purchased from Invitrogen	21.48	20.17	22.78	10.28	10.20	10.36	0.00	0.00	0.00	0.10	0.09	0.10	7.70	8.30	7.09	3.80	5.61	1.99	Percent phosphorylation S159, AVE (Mcl-1 S159; CDK1 + kinase panel reactions): 17.13%; Percent phosphorylation S159, INJ1 (Mcl-1 S159; CDK1 + kinase panel reactions): 16.35%; Percent phosphorylation S159, INJ2 (Mcl-1 S159; CDK1 + kinase panel reactions): 17.90%; Percent phosphorylation S159, AVE (Mcl-1 S159; single kinase reactions): 39.13%; Percent phosphorylation S159, INJ1 (Mcl-1 S159; single kinase reactions): 40.30%; Percent phosphorylation S159, INJ2 (Mcl-1 S159; single kinase reactions): 37.95%
MAPK9: purified recombinant kinase purchased from Invitrogen	11.82	11.75	11.89	6.02	6.46	5.57	48.52	48.92	48.11	2.02	2.30	1.74	0.61	0.73	0.49	4.82	5.41	4.22	
MAPK14: purified recombinant kinase purchased from Invitrogen	20.58	21.26	19.90	5.26	7.22	3.29	76.20	79.44	72.96	8.94	9.67	8.20	2.14	1.84	2.43	4.35	1.12	7.57	
